Assay results from patent publication US11530216B2, “Deuterated colony stimulating factor-1 receptor (CSF-1R) inhibitors” (Genzyme Corporation, priority 2020, dated 2022).
Like-named read-outs stand apart in the source and are kept apart here.

Assays:
[1] = target: CYP3A4 (Homo sapiens (Human), UniProt P08684); test: CYP inhibition in human liver microsomes, CYP3A4; format: in vitro ADME
Experimental: The objective of this assay method was to determine the inhibitory potential of test articles, in vitro, against specific cytochrome P450 (CYP) enzymes, using human liver microsomes (HLMs). The test compounds were diluted from pure DMSO stocks to a final test concentration range of 10 μM-0.07 μM in a 0.5% DMSO solution. […] After incubation, the samples were extracted, and protein precipitated in acetonitrile containing 0.1% formic acid. The samples were centrifuged to remove excess protein, and were analyzed by LDTD/MS/MS to determine IC50 values. Key concentrations of substrates were as follows: CYP2D6 Substrate—Dextromethorphan at 10 μM. CYP3A4 Substrates—Testosterone at 60 μM, and Midazolam at 2 μM. Dextromethorphan and testosterone were incubated with the test compounds for 30 minutes each. Midazolam was incubated with the test compounds for 10 minutes.

[2] = Metabolite profiles in human cryopreserved hepatocytes in absence and presence of AO inhibitor hydralazine; format: in vitro ADME; conditions: 2 hours; for % of Total (integrated MS peak areas), Human Hepatocytes: absence of hydralazine; for % of Total (integrated MS peak areas), Human Hepatocytes + Hydralazine: hydralazine 10 μM
Experimental: After study sampling, the remaining samples from triplicate incubations were combined and processed for the metabolite identification study.
(§1) To each sample was added equal amounts of ice-cold acetonitrile (v/v) and the samples were then vortex mixed. Following centrifugation at approximately 13,000 rpm for 10 minutes, the supernatants were concentrated under nitrogen flow at 35° C. until approximately 0.1-0.2 mL of extract remained. Prior to analysis, the remaining extract was centrifuged at approximately 13,000 rpm for 15 minutes. The supernatant was injected into LC/UV/MS for analysis.
Metabolite identification was performed on UPLC (Thermo Vanquish) coupled with UV (Thermo Vanquish) and mass spectrometry (MS) detection (Thermo Orbitrap ID-X).
The mass peak areas were used for metabolite profiling, due to low sample concentrations. […] Metabolites having a peak area that accounts for equal to or more than 0.1% of the toral integrated MS peaks areas are reported in Table 1 below.
The metabolites are characterized based on their accurate masses (tolerance ≤5 ppm), mass fragmentation patterns, and comparison with other in vitro studies.
After study sampling, the remaining samples from triplicate incubations were combined and processed for metabolite identification study.
as §1, with “were” for “were then”, “was” for “were”
The mass peak areas are used for metabolite profiling, due to low sample concentrations. […] Metabolites having a peak area that accounts for equal to or more than 0.1% of the toral integrated MS peaks areas are reported in Table 2 below.
The metabolites are characterized based on their accurate masses (tolerance≤5 ppm), mass fragmentation patterns, and comparison with other in vitro studies.

[3] = Mouse hepatocyte intrinsic clearance; format: in vitro ADME; conditions: 1 μM, 0.5 million cells/mL
Experimental: (§2) Incubations were performed in 0.5 million hepatocytes cells/mL at 1 μM concentration of test compound in duplicate with rat, human, dog, monkey, or mouse hepatocytes, and the concentration-time course of test compound depletion was determined after withdrawing samples from the incubation at assay time points followed by liquid chromatography with tandem mass spectrometry analysis. An organic solvent was used to terminate incubations.

[4] = tested on: C57BL/6 EAE model; test: MOG-induced EAE model; format: in vivo, mouse; conditions: 15 mg/kg p.o. BID for 7 days; for mean disease scores: female C57BL/6J mice
Experimental: Experimental autoimmune encephalomyelitis (EAE) is primarily used as a non-clinical model of autoimmune inflammatory diseases of the CNS, and resembles many aspects of human multiple sclerosis. The myelin oligodendrocyte glycoprotein (MOG)-induced EAE model is ideal for exploring this immune-mediated mechanism of neuroinflammation and demyelination.
Test articles: • MOG35-55 peptide (New England Peptides, lot #BU01787)—250 μg/mouse in 4 mg/mL complete Freund's adjuvant (CFA; Chondrex Inc, Cat #7009, lot #190446) Bordetella pertussis toxin (PTX, Sigma, cat #P7208-5OUG, lot #MKCL 1350)—280 ng/mouse in 200 μL PBS • CSF-1R inhibitors—15 mg/kg • Vehicle—0.5% methylcellulose/0.2% Tween-80 Delivery: • MOG peptide & CFA: subcutaneous injection to 2 sites in the hind flank (100 μL/site). • Bordetella pertussis toxin: i.v. injection of 280 ng/mouse in 200 μL PBS on Day 0 and 2. • CSF1R inhibitor: oral gavage every 12 hours • Vehicle: oral gavage every 12 hours Time points: • Day 0—Administer MOG peptide in CFA and PTX to Groups 1-3 • Day 2—Administer PTX by i.v. to Groups 1-3 • Day 9—Begin daily scoring of mice • Day 11-14—Randomize mice to groups when reach score of 1 and begin treatment • Day ˜18-21—After 7 days of treatment, perfuse mice and euthanize animals.
Mice were clinically assessed daily for signs of paralytic disease and weighed intermittently to document weight loss. At study termination, ½ brain was fixed for histology and brain/liver/plasma were collected for exposure. Spinal cord and whole blood was collected for flow cytometry. Additional plasma aliquots were saved for follow up analysis.
Female C57BL/6J mice were immunized with an emulsion of MOG35-55 peptide (250 μg/mouse) in complete Freund's adjuvant (CFA). […] Following EAE induction, the mice were monitored daily for paralytic symptoms and scored for their clinical presentation using a progressive scoring system (Score 0: no disease; Score 1: flaccid tail; Score 2: hindlimb weakness; Score 3: hindlimb paralysis; Score 4: Front limb weakness or partial paralysis; Score 5: death). […]

[5] = Rat hepatocyte intrinsic clearance; format: in vitro ADME; conditions: 1 μM, 0.5 million cells/mL
Experimental: as §2

[6] = Human hepatocyte intrinsic clearance; format: in vitro ADME; conditions: human, hepatocytes
Experimental: as §2
These available known AO substrates along with the test compounds were analyzed using three in vitro systems (pooled human liver cytosol, liver S-9 fractions and human hepatocytes isolated from livers perfused with HTK media). Scaled unbound intrinsic clearances were calculated for the test compounds/new chemical entities and were compared to the in vivo unbound intrinsic clearances of the known AO substrates.

[7] = Monkey hepatocyte intrinsic clearance; format: in vitro ADME; conditions: 1 μM, 0.5 million cells/mL
Experimental: as §2

[8] = midazolam 2 μM, 10 min, read-out: CYP inhibition mean IC50 (INH) Isoform: CYP3A4 Substrate: midazolam
[9] = testosterone 60 μM, 30 min, read-out: CYP inhibition mean IC50 (INH) Isoform: CYP3A4 Substrate: testosterone
[10] = incubation of Compound 24, 1 μM

Chain of CYP3A4 (P08684 whole entry): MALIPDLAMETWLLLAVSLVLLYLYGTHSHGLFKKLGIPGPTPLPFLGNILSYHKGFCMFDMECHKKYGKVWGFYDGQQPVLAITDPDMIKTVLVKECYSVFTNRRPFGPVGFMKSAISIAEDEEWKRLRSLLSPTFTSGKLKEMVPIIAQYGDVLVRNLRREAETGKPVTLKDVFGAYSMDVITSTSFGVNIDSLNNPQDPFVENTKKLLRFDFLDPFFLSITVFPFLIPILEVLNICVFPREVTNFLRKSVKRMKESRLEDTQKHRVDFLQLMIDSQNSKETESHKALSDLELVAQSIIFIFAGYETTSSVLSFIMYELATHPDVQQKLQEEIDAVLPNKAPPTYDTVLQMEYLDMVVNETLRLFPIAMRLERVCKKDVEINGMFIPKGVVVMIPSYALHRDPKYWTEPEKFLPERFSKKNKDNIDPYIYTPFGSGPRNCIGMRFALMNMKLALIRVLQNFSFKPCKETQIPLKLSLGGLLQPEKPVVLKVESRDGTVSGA

Structure (SMILES) | IC50 [1, 8] [µM] | IC50 [1, 9] [µM] | % of Total (integrated MS peak areas), Human Hepatocytes ([2]; incubation of Compound 6, 1 μM) [%] | % of Total (integrated MS peak areas), Human Hepatocytes + Hydralazine ([2]; incubation of Compound 6, 1 μM) [%] | Mouse Hepatocyte Intrinsic Clearance [3] [μL/min/10^7 cells] | paralytic symptoms ([4]; compared with Compound 24) | mean disease scores [4] | Rat Hepatocyte Intrinsic Clearance [5] [μL/min/10^7 cells] | CLint scaled at 1 μM [6] [mL/min/kg] | hepatocyte CLint at 1 μM [6] [µL/min/1e6 cells] | Monkey Hepatocyte Intrinsic Clearance [7] [μL/min/10^7 cells] | % of Total (integrated MS peak areas), Human Hepatocytes [2, 10] [%] | % of Total (integrated MS peak areas), Human Hepatocytes + Hydralazine [2, 10] [%]
[2H]c1nc2cccnc2n1Cc1cc(OC)c2c(c1)O[C@@H](C)[C@H](c1ccc(OC)nc1)O2 [Compound 6, 3-(((2S,3S)-8-methoxy-2-(6-methoxypyridin-3-yl)-3-methyl-2,3-dihydrobenzo[b][1,4]dioxin-6-yl)methyl)-3H-imidazo[4,5-b]pyridine-2-d] | > 10 | > 10 | 87.1 | 92.0 | 6.63 | ameliorated paralytic symptoms to a surprisingly greater extent than nondeuterated Compound 24 | significantly mean disease scores | 9.00 | 20 | 7.88 | 27.2 | – | –
COc1ccc(C2Oc3c(OC)cc(Cn4cnc5cccnc54)cc3O[C@H]2C)cn1 (stereo partly drawn) [Compound 24] | > 10 | > 10 | – | – | 9.36 | – | significantly mean disease scores | 8.72 | 32.3 | 12.7 | >92 | 72.2 | 90.9
